Article PMC7702144, “A Ligand-Directed Nitrophenol Carbonate for Transient in situ Bioconjugation and Drug Delivery” (ChemMedChem, 2020)

Legend:
avidin [1] = biological target: T1, avidin (Gallus gallus, UniProt P02701); experiment: isothermal titration calorimetry; co-crystal structure […] Å; format: binding
T1 construct: gene AVD; homotetramer by known biology (monomers A and C mentioned)

avidin [2] = biological target: T1, avidin; experiment: isothermal titration calorimetry; HABA assay; format: binding

T1 sequence (P02701 25-152): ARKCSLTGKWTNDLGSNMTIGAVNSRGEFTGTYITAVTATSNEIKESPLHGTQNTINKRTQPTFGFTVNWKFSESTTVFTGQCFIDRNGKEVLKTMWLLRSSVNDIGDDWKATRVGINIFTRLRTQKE

Row | Structure (SMILES) | Kd (avidin [1]) [nM] | Kd (avidin [2]) [nM]
1 | O=C(CCCC[C@@H]1SC[C@@H]2NC(=O)N[C@@H]21)NCCc1cc([N+](=O)[O-])ccc1O [compound 7] | 225 | –
2 | CC(C)Cn1cnc2c(NC(=O)OCCOC(=O)Oc3ccc([N+](=O)[O-])cc3CCNC(=O)CCCC[C@@H]3SC[C@@H]4NC(=O)N[C@@H]43)nc3ccccc3c21 [compound 8, LDNPC (8)] | – | 104
